Results as given in patent publication US20230002397A1, “SMALL MOLECULE DEGRADERS OF HELIOS AND METODS OF USE” (DANA-FARBER CANCER INSTITUTE, INC., priority 2019, published 2023).

Biological target: T1, IKZF2 (Homo sapiens, UniProt Q96SW2+Q9UKS7)
T1 construct: CRISPR/Cas9—mediated insertion of the HiBiT peptide tag (Promega™) to the N-terminus of the IKZF2 gene locus; endogenous in cells; host or cells: MOLT4 cells, with CRISPR/Cas9 knock-in of HiBiT at the endogenous IKZF2 locus
Experiment: HiBit-IKZF2 assay (HiBiT-Helios degradation in MOLT4 cells)
Type: cell-based
Conditions: for Dmax: MOLT-4, extent of degradation from highest to lowest concentration, 10 μM to 0.00026 μM, read-out: Dmax; for DC50: concentration at which 50% of HiBiT-Helios degradation was achieved
Summary of the method: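 MOLT4 cells carried an endogenous N-terminal HiBiT tag on IKZF2, knocked in by CRISPR. Cells were treated in triplicate at 13 concentrations (10 μM–0.00026 μM), and remaining HiBiT-Helios was read by lytic luminescence at set timepoints. Data were normalized to DMSO to give the 50% degradation concentration, with Dmax taken from the luminescence range.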

T1 sequence (Q9UKS7 whole entry): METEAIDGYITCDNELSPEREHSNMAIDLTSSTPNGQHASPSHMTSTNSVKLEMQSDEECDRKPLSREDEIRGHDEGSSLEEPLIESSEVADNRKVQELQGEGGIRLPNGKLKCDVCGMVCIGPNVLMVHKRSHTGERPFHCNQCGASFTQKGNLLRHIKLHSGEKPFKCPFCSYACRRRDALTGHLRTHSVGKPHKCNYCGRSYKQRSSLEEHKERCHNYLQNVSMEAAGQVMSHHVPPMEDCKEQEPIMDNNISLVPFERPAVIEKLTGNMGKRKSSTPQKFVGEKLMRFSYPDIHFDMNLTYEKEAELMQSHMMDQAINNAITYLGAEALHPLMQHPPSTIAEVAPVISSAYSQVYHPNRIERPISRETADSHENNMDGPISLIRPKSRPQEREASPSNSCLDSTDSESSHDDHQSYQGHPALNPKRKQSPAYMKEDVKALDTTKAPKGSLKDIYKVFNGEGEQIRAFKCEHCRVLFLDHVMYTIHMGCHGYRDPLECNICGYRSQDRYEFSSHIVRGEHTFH
T1 sequence (Q96SW2 whole entry): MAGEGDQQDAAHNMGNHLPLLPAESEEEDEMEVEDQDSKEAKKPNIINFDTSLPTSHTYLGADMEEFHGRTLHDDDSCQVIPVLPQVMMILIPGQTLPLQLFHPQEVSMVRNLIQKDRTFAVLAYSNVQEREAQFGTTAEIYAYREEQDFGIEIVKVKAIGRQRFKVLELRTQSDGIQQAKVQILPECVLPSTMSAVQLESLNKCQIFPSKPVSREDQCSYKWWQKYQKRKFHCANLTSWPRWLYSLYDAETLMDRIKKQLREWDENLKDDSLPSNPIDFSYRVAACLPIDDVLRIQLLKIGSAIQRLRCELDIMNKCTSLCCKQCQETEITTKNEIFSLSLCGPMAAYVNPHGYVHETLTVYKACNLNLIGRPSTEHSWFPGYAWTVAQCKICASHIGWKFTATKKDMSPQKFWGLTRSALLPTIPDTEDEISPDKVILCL
T1 sequence (Q16531 whole entry partner): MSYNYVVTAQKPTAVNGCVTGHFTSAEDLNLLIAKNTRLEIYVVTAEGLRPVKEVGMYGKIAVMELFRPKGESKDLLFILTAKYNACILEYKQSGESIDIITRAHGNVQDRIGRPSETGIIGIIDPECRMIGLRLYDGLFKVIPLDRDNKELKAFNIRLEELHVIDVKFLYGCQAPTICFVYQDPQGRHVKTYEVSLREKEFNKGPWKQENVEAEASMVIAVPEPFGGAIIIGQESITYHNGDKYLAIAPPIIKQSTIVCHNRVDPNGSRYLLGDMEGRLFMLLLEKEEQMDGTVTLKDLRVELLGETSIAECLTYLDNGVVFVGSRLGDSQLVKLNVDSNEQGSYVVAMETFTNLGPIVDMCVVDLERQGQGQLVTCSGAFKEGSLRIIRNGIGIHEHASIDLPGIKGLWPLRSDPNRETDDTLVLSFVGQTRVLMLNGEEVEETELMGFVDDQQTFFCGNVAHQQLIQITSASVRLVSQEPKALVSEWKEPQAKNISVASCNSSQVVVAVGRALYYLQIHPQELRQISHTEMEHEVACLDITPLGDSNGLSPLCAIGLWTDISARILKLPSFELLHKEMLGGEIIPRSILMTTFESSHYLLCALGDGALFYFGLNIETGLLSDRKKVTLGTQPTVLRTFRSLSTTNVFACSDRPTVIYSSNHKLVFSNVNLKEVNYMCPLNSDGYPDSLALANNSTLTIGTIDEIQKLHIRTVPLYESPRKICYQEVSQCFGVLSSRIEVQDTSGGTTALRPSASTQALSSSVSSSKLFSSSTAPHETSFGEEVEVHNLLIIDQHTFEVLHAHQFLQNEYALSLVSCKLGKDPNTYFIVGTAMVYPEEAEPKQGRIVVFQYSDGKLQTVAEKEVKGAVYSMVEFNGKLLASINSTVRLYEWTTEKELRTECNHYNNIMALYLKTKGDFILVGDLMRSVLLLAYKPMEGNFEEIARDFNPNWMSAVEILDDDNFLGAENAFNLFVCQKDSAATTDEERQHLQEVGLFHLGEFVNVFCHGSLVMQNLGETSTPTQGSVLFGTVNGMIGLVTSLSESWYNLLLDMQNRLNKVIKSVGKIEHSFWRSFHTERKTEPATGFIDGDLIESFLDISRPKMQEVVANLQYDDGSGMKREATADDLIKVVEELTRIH

SMILES | Dmax [%] | DC50 [nM]
O=C1CCC(N2Cc3cc(C4CCN(Cc5ccc(S(=O)(=O)N(c6ccccc6)C6COC6)cc5)CC4)ccc3C2=O)C(=O)N1 (centres unmarked) [Compound 165] | 50 to 70 | < 10
O=C1CCC(N2Cc3cc(C4(O)CCN(Cc5cccc6c5CCN(c5ccccn5)C6=O)CC4)ccc3C2=O)C(=O)N1 (centres unmarked) [Compound 202] | 50 to 70 | < 10
Cc1cccc(CN2CCC(O)(c3ccc4c(c3)CN(C3CCC(=O)NC3=O)C4=O)CC2)c1 (centres unmarked) [Compound 264] | > 70 | < 10
O=C1CCC(N2Cc3cc(C4CCN(Cc5cccc(N6CCC7(CC7)C6=O)c5)CC4)ccc3C2=O)C(=O)N1 (centres unmarked) [Compound 10] | 30 to 50 | 10 to 30
O=C1CCC(N2Cc3cc(C4CCN(Cc5ccnc(Nc6ccccn6)c5)CC4)ccc3C2=O)C(=O)N1 (centres unmarked) [Compound 115] | 50 to 70 | < 10
O=C1CCC(N2Cc3cc(C4(O)CCN(Cc5cccc(OC(F)F)c5)CC4)ccc3C2=O)C(=O)N1 (centres unmarked) [Compound 208] | > 70 | < 10
O=C1CCC(N2Cc3cc(C4CCN(Cc5cnc(Nc6ccccc6)o5)CC4)ccc3C2=O)C(=O)N1 (centres unmarked) [Compound 191] | 50 to 70 | 10 to 30
O=C1CCC(N2Cc3cc(C4CCN(Cc5cccc6c5CN(c5ccccc5)C6=O)CC4)ccc3C2=O)C(=O)N1 (centres unmarked) [Compound 113] | 30 to 50 | < 10
O=C1CCC(N2Cc3cc(C4CCN(Cc5ccc(S(=O)(=O)Nc6ccccn6)cc5)CC4)ccc3C2=O)C(=O)N1 (centres unmarked) [Compound 157] | 50 to 70 | 30 to 150
O=C1CCC(N2Cc3cc(C4CCN(Cc5ccnc(C(=O)Nc6ccccn6)c5)CC4)ccc3C2=O)C(=O)N1 (centres unmarked) [Compound 130] | 50 to 70 | 10 to 30
Cc1ccnc(Nc2cccc(CN3CCC(c4ccc5c(c4)CN(C4CCC(=O)NC4=O)C5=O)CC3)c2F)n1 (centres unmarked) [Compound 231] | 50 to 70 | < 10
O=C1CCC(N2Cc3cc(C4CCN(Cc5nccc(Nc6ccccc6)c5F)CC4)ccc3C2=O)C(=O)N1 (centres unmarked) [Compound 100] | 50 to 70 | 10 to 30
O=C1CCC(N2Cc3cc(C4(O)CCN(Cc5ccc(F)c(F)c5)CC4)ccc3C2=O)C(=O)N1 (centres unmarked) [Compound 244] | > 70 | < 10
O=C1CCC(N2Cc3cc(C4(O)CCN(Cc5ccc6ccccc6c5)CC4)ccc3C2=O)C(=O)N1 (centres unmarked) [Compound 203] | > 70 | < 10
O=C1CCC(N2Cc3cc(C4CCN(Cc5ccc6c(c5)C(=O)N(c5ccc(F)cc5)C6)CC4)ccc3C2=O)C(=O)N1 (centres unmarked) [Compound 180] | 50 to 70 | 10 to 30
O=C1CCC(N2Cc3cc(C4(O)CCN(Cc5cccc(C(F)(F)F)c5)CC4)ccc3C2=O)C(=O)N1 (centres unmarked) [Compound 250] | > 70 | < 10
O=C1CCC(N2Cc3cc(C4CCN(Cc5cccnc5Oc5ccccc5)CC4)ccc3C2=O)C(=O)N1 (centres unmarked) [Compound 119] | 30 to 50 | 30 to 150
O=C1CCC(N2Cc3cc(C4CCN(Cc5ccc(S(=O)(=O)N6CC7C(C6)C7(F)F)cc5)CC4)ccc3C2=O)C(=O)N1 (centres unmarked) [Compound 58] | 30 to 50 | 10 to 30
O=C1CCC(N2Cc3cc(C4CCN(Cc5ccc(S(=O)(=O)N6CCC7(CC7)C6)cc5)CC4)ccc3C2=O)C(=O)N1 (centres unmarked) [Compound 169] | 50 to 70 | < 10
O=C1CCC(N2Cc3cc(C4CCN(Cc5ccc(C(=O)Nc6ccccc6)nc5)CC4)ccc3C2=O)C(=O)N1 (centres unmarked) [Compound 141] | 50 to 70 | 30 to 150

SMILES | Dmax [%] | DC50 [nM]
O=C1CCC(N2Cc3cc(C4CCN(Cc5ccnc(Nc6ccccc6)n5)CC4)ccc3C2=O)C(=O)N1 (centres unmarked) [Compound 122] | 30 to 50 | 10 to 30
O=C1CCC(N2Cc3cc(C4CCN(Cc5cccc(N6CCCCS6(=O)=O)c5)CC4)ccc3C2=O)C(=O)N1 (centres unmarked) [Compound 97] | 30 to 50 | 10 to 30
O=C1CCC(N2Cc3cc(C4(O)CCN(Cc5cccc(Cl)c5)CC4)ccc3C2=O)C(=O)N1 (centres unmarked) [Compound 207] | > 70 | < 10
CP(C)(=O)c1cccc(Nc2cccc(CN3CCC(c4ccc5c(c4)CN(C4CCC(=O)NC4=O)C5=O)CC3)c2)c1 (centres unmarked) [Compound 135, 3-(5-(1-(3-((3-(dimethylphosphoryl)phenyl)amino)benzyl)piperidin-4-yl)-1-oxoisoindolin-2-yl)piperidine-2,6-dione] | 50 to 70 | 10 to 30
O=C1CCC(N2Cc3cc(C4(O)CCN(Cc5ccc6c(c5)C(=O)N(c5ccccc5O)C6)CC4)ccc3C2=O)C(=O)N1 (centres unmarked) [Compound 219] | > 70 | < 10
O=C1CCC(N2Cc3cc(C4CCN(Cc5ccnc(Oc6ccccc6)c5)CC4)ccc3C2=O)C(=O)N1 (centres unmarked) [Compound 43, 3-(1-oxo-5-(1-((2-phenoxypyridin-4-yl)methyl)piperidin-4-yl)isoindolin-2-yl)piperidine-2,6-dione] | 50 to 70 | 30 to 150
COc1cccc(CN2CCC(O)(c3ccc4c(c3)CN(C3CCC(=O)NC3=O)C4=O)CC2)c1 (centres unmarked) [Compound 261] | > 70 | < 10
O=C1CCC(N2Cc3cc(C4(O)CCN(Cc5ccc6ncsc6c5)CC4)ccc3C2=O)C(=O)N1 (centres unmarked) [Compound 242] | > 70 | < 10
O=C1CCC(N2Cc3cc(C4(O)CCN(Cc5ccccc5Oc5ccccc5)CC4)ccc3C2=O)C(=O)N1 (centres unmarked) [Compound 252] | > 70 | < 10
CP(C)(=O)c1ccccc1NC(=O)c1cccc(CN2CCC(c3ccc4c(c3)CN(C3CCC(=O)NC3=O)C4=O)CC2)c1 (centres unmarked) [Compound 138] | 50 to 70 | < 10
O=C1CCC(N2Cc3cc(C4CCN(Cc5cccc(N6CCCCC6=O)c5)CC4)ccc3C2=O)C(=O)N1 (centres unmarked) [Compound 161] | 30 to 50 | 10 to 30
O=C1CCC(N2Cc3cc(C4CCN(Cc5ccc(S(=O)(=O)N6CCc7ccccc76)cc5)CC4)ccc3C2=O)C(=O)N1 (centres unmarked) [Compound 167] | 50 to 70 | < 10
O=C1CCC(N2Cc3cc(C4CCN(Cc5ccc6c(c5)C(=O)N(c5cnsc5)C6)CC4)ccc3C2=O)C(=O)N1 (centres unmarked) [Compound 222] | 50 to 70 | < 10
CN(c1ccccc1)S(=O)(=O)c1ccc(CN2CCC(c3ccc4c(c3)CN(C3CCC(=O)NC3=O)C4=O)CC2)cc1 (centres unmarked) [Compound 92] | 50 to 70 | < 10
O=C1CCC(N2Cc3cc(C4CCN(Cc5ccc6c(c5)C(=O)N(c5ccccn5)CCC6)CC4)ccc3C2=O)C(=O)N1 (centres unmarked) [Compound 184] | 50 to 70 | 10 to 30
O=C1CCC(N2Cc3cc(C4CCN(Cc5ccnc(C(=O)Nc6ccccc6)c5)CC4)ccc3C2=O)C(=O)N1 (centres unmarked) [Compound 131] | 50 to 70 | 30 to 150
O=C1CCC(N2Cc3cc(C4CCN(Cc5ccc6c(c5)C(=O)N(c5ccns5)C6)CC4)ccc3C2=O)C(=O)N1 (centres unmarked) [Compound 224] | > 70 | < 10
Cc1cccc(N2Cc3ccc(CN4CCC(c5ccc6c(c5)CN(C5CCC(=O)NC5=O)C6=O)CC4)cc3C2=O)c1 (centres unmarked) [Compound 215] | > 70 | 10 to 30
O=C1CCC(N2Cc3cc(C4(O)CCN(Cc5ccccc5OC(F)F)CC4)ccc3C2=O)C(=O)N1 (centres unmarked) [Compound 248] | > 70 | < 10
O=C1CCC(N2Cc3cc(C4(O)CCN(Cc5ccccc5F)CC4)ccc3C2=O)C(=O)N1 (centres unmarked) [Compound 256] | > 70 | < 10
